In brackets after ≈: the same amount, converted by molar mass. Where only a bound is given, the exact number is not on record here.

In patent EP0326922A2 (priority 1988, dated 1989) one finds Löslichkeit and MIC data, which are given here for two compounds.

For series [1] the following is noted: solvents in which the substance dissolves, in words.
A further series deals with Candida albicans. The series can be described thus: MIC (MHK) determination. It is filed as cell-based. The conditions noted are these: read-out: MHK-Werte.
The test system of the next series is Saccharomyces cerevisiae. The series can be described thus: MIC (MHK) determination. The class given is cell-based. The conditions noted are these: read-out: MHK-Werte.
In the next series the test system is Hefe 5060. Description: MIC (MHK) determination. It is filed as cell-based. The conditions noted are these: read-out: MHK-Werte.
For another series, the system named is Aspergillus niger. The series can be described thus: MIC (MHK) determination. It is filed as cell-based. The following applies: read-out: MHK-Werte.
Series [2] relates to Penicillium digitatum 135. The series can be described thus: MIC (MHK) determination. The class given is cell-based. The following applies: read-out: MHK-Werte.
The next series relates to Fusarium culmorum 100. Description: MIC (MHK) determination. The conditions noted are these: read-out: MHK-Werte. It is filed as cell-based.
Series [3] deals with Trichophyton mentagrophytes. Description: MIC (MHK) determination. The class given is cell-based. The following applies: read-out: MHK-Werte.
The test system of a further series is Cladosporuim resinae. Description: MIC (MHK) determination. It is filed as cell-based. The conditions noted are these: read-out: MHK-Werte.
Another series deals with Botrytis cinerea 16. The series can be described thus: MIC (MHK) determination. It is filed as cell-based. The following applies: read-out: MHK-Werte.
The subject of the next series is Botrytis cinerea 47. Description: MIC (MHK) determination. The class given is cell-based. The conditions noted are these: read-out: MHK-Werte.
The subject of another series is Botrytis cinerea 57. The series can be described thus: MIC (MHK) determination. It is filed as cell-based. The following applies: read-out: MHK-Werte.
The next series has as its system Alternaria solani 5. The series can be described thus: MIC (MHK) determination. The class given is cell-based. The following applies: read-out: MHK-Werte.
A further series relates to Cercospora beticola 71. Description: MIC (MHK) determination. It is filed as cell-based. The following applies: read-out: MHK-Werte.
Another series deals with Pyricularia oryzae 154. Description: microbe, parasite or virus in culture. It is filed as cell-based. The conditions noted are these: Pyricularia oryzae, 154, read-out: MHK-Werte.
For another series, the system named is Staph. aureus 209 P. The series can be described thus: MIC (MHK) determination. It is filed as cell-based. The following applies: Staphylococcus aureus, read-out: MHK-Werte.
The next series relates to E. coli 9632. The series can be described thus: MIC (MHK) determination. It is filed as cell-based. The conditions noted are these: Escherichia coli, read-out: MHK-Werte.

In the case of `COC(=O)/C=C(/C=C/C(C)C/C=C/CC/C=C/C=C\CC(OC)/C(C)=C\C=C(/C)C(=O)OC)CC(=O)OC` (stereo not drawn) [Isobongkrekinsäure-trimethylester], the Löslichkeit result in [1] is “CHCl3, CH2Cl2,MeOH, Aceton, Äthylacetat und Petroläther”.
For `COC(C/C=C\C=C\CC/C=C/CC(C)/C=C/C(=C/C(=O)O)CC(=O)O)/C(C)=C\C=C(/C)C(=O)O` (stereo not drawn) [Isobongkrekinsäure, 3-Carboxymethyl-17-methoxy-6,18,21-trimethyldocosa-2E,4E,8E,12E,14Z,18Z,20E-hepta-en-1,22-disäure], the MIC is greater than 125 µg/mL in the series on Candida albicans; greater than 125 µg/mL with Saccharomyces cerevisiae; greater than 125 µg/mL in the series on Hefe 5060; 62.5 µg/mL (≈ 128 µM) in the series on Aspergillus niger; 62.5 µg/mL (≈ 128 µM) in series [2]; 7.8 µg/mL (≈ 16 µM) in the series on Fusarium culmorum 100. Besides, the MIC worked out at 125 µg/mL (≈ 257 µM) in series [3]; 250 µg/mL (≈ 514 µM) with Cladosporuim resinae; 62.5 µg/mL (≈ 128 µM) in the series on Botrytis cinerea 16; 15.6 µg/mL (≈ 32.1 µM) with Botrytis cinerea 47; 31.2 µg/mL (≈ 64.1 µM) in the series on Botrytis cinerea 57; 62.5 µg/mL (≈ 128 µM) in the series with Alternaria solani 5. In addition, the MIC in the series with Cercospora beticola 71 is 15.6 µg/mL (≈ 32.1 µM); in the series with Pyricularia oryzae 154 it was 31.2 µg/mL (≈ 64.1 µM); in the series with Staph. aureus 209 P it was 125 µg/mL (≈ 257 µM); with E. coli 9632 it was greater than 125 µg/mL. Besides, the Löslichkeit result in series [1] is on record as “Wäßriges Alkali, schwerlöslich in MeOH und Wasser”.
